Results: PubChem BioAssay AID330 (DTP/NCI, 2004)
Where “and” joins values, the source holds several entries; their conditions need not be identical. Equal values may be shown once. Inconclusive results and toxic doses are left out.

Test system: P388 leukemia ip, CD2F1 mice, survival T/C
Experiment: NCI In Vivo Anticancer Drug Screen. Data for tumor model P388 Leukemia (intraperitoneal) in CD2F1 (CDF1) mice
Details: endpoint: median survival time, higher = longer survival
In short: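 Mice carrying the transplanted tumor received test compound or vehicle. Survival was recorded in each group, and the value is the treated-group measurement divided by that of the vehicle-treated control group.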

COc1ccc(C(=O)CC2(O)C(=O)Nc3ccccc32)cc1 (stereo unspecified)
T/C (dose: 50.0 mg/kg/injection, schedule: Q01DX009 (ip), vehicle: Klucel (hydroxypropylcellulose) (HPC)): 100 % of control | T/C (dose: 100.0 mg/kg/injection, schedule: Q01DX009 (ip), vehicle: Klucel (hydroxypropylcellulose) (HPC)): 102 % of control | T/C (dose: 200.0 mg/kg/injection, schedule: Q01DX009 (ip), vehicle: Klucel (hydroxypropylcellulose) (HPC)): 100 % of control

CC1OC(Nc2ncnc3nc[nH]c23)C(O)C(O)C1NC(=O)CNC(=O)CCCCCCCCCCCC(C)(C)C (stereo unspecified)
T/C (dose: 0.25 mg/kg/injection, schedule: Q01DX009 (ip), vehicle: distilled water + Tween-80): 111 % of control and 117 % of control | T/C (dose: 0.5 mg/kg/injection, schedule: Q01DX009 (ip), vehicle: distilled water + Tween-80): 118 % of control | T/C (dose: 1.0 mg/kg/injection, schedule: Q01DX009 (ip), vehicle: distilled water + Tween-80): 166 % of control | T/C (dose: 2.0 mg/kg/injection, schedule: Q01DX009 (ip), vehicle: distilled water + Tween-80): 117 % of control | T/C (dose: 4.0 mg/kg/injection, schedule: Q01DX009 (ip), vehicle: distilled water + Tween-80): 108 % of control and 91 % of control

CCCCCCCCOCC(O)CN(CCO)CCO (stereo unspecified)
T/C (dose: 12.5 mg/kg/injection, schedule: Q01DX009 (ip), vehicle: saline): 107 % of control | T/C (dose: 25.0 mg/kg/injection, schedule: Q01DX009 (ip), vehicle: saline): 92 % of control | T/C (dose: 50.0 mg/kg/injection, schedule: Q01DX009 (ip), vehicle: saline): 94 % of control and 97 % of control

COP(=O)(OC)O/C(=C/Cl)c1cc(Cl)cc(Cl)c1Cl
T/C (dose: 100.0 mg/kg/injection, schedule: Q04DX003 (ip), vehicle: Klucel (hydroxypropylcellulose) (HPC)): 102 % of control | T/C (dose: 200.0 mg/kg/injection, schedule: Q04DX003 (ip), vehicle: Klucel (hydroxypropylcellulose) (HPC)): 100 % of control | T/C (dose: 400.0 mg/kg/injection, schedule: Q04DX003 (ip), vehicle: Klucel (hydroxypropylcellulose) (HPC)): 111 % of control

Oc1c(Br)cc(Br)cc1/C=N/NC(=S)NC12CC3CC(CC(C3)C1)C2
T/C (dose: 30.0 mg/kg/injection, schedule: Q01DX005 (ip), vehicle: Klucel (hydroxypropylcellulose) (HPC)): 87 % of control | T/C (dose: 60.0 mg/kg/injection, schedule: Q01DX005 (ip), vehicle: Klucel (hydroxypropylcellulose) (HPC)): 87 % of control | T/C (dose: 120.0 mg/kg/injection, schedule: Q01DX005 (ip), vehicle: Klucel (hydroxypropylcellulose) (HPC)): 88 % of control and 93 % of control | T/C (dose: 240.0 mg/kg/injection, schedule: Q01DX005 (ip), vehicle: Klucel (hydroxypropylcellulose) (HPC)): 89 % of control

CC(C(=O)c1cc(Cl)cc(Cl)c1O)C1(O)C(=O)Nc2ccccc21 (stereo unspecified)
T/C (dose: 60.0 mg/kg/injection, schedule: Q01DX005 (ip), vehicle: saline with Tween-80): 107 % of control | T/C (dose: 120.0 mg/kg/injection, schedule: Q01DX005 (ip), vehicle: saline with Tween-80): 100 % of control | T/C (dose: 240.0 mg/kg/injection, schedule: Q01DX005 (ip), vehicle: saline with Tween-80): 99 % of control

CCCCCCCCCCCCCCCc1cccc(OC)c1C(=O)O
T/C (dose: 7.5 mg/kg/injection, schedule: Q01DX009 (ip), vehicle: saline with Tween-80): 107 % of control | T/C (dose: 15.0 mg/kg/injection, schedule: Q01DX009 (ip), vehicle: saline with Tween-80): 113 % of control | T/C (dose: 30.0 mg/kg/injection, schedule: Q01DX009 (ip), vehicle: saline with Tween-80): 116 % of control

C#CCCCOCOCCOC
T/C (dose: 60.0 mg/kg/injection, schedule: Q01DX005 (ip), vehicle: saline): 101 % of control | T/C (dose: 120.0 mg/kg/injection, schedule: Q01DX005 (ip), vehicle: saline): 101 % of control

CC(O)[C@H]1CC[C@H]2[C@@H]3CC(=O)[C@H]4C[C@H](O)[C@H](O)C[C@]4(C)[C@H]3CC[C@]12C (stereo partly specified)
T/C (dose: 100.0 mg/kg/injection, schedule: Q04DX002 (ip), vehicle: saline with Tween-80): 91 % of control | T/C (dose: 200.0 mg/kg/injection, schedule: Q04DX002 (ip), vehicle: saline with Tween-80): 90 % of control | T/C (dose: 400.0 mg/kg/injection, schedule: Q04DX002 (ip), vehicle: saline with Tween-80): 90 % of control

C=C1C(=O)OC2C1C(OC(=O)/C(C)=C/C)CC1(CO1)C1C(O)C3OC3(C)C21O (stereo unspecified)
T/C (dose: 25.0 mg/kg/injection, schedule: Q04DX002 (ip), vehicle: saline with Tween-80): 117 % of control | T/C (dose: 50.0 mg/kg/injection, schedule: Q04DX002 (ip), vehicle: saline with Tween-80): 117 % of control

COc1cc(N=Nc2ccccc2)cc(/C=N\NC(=S)Nc2ccccc2)c1O
T/C (dose: 50.0 mg/kg/injection, schedule: Q01DX005 (ip), vehicle: saline with Tween-80): 91 % of control | T/C (dose: 100.0 mg/kg/injection, schedule: Q01DX005 (ip), vehicle: saline with Tween-80): 94 % of control

CNC(=O)Oc1ccccc1OC(C)C
T/C (dose: 7.5 mg/kg/injection, schedule: Q01DX005 (ip), vehicle: Klucel (hydroxypropylcellulose) (HPC)): 97 % of control | T/C (dose: 15.0 mg/kg/injection, schedule: Q01DX005 (ip), vehicle: Klucel (hydroxypropylcellulose) (HPC)): 96 % of control

CCOC(=O)/C=C(\Br)C(=O)OCC
T/C (dose: 3.15 mg/kg/injection, schedule: Q01DX009 (ip), vehicle: saline with Tween-80): 108 % of control | T/C (dose: 6.25 mg/kg/injection, schedule: Q01DX009 (ip), vehicle: saline with Tween-80): 99 % of control | T/C (dose: 12.5 mg/kg/injection, schedule: Q01DX009 (ip), vehicle: saline with Tween-80): 119 % of control

CCCNC(C)(C)C(SSSC(c1ccc(C(F)(F)F)cc1)C(C)(C)NCCC)c1ccc(C(F)(F)F)cc1 (stereo unspecified)
T/C (dose: 100.0 mg/kg/injection, schedule: Q01DX001 (ip), vehicle: saline with Tween-80): 100 % of control | T/C (dose: 200.0 mg/kg/injection, schedule: Q01DX001 (ip), vehicle: saline with Tween-80): 104 % of control | T/C (dose: 400.0 mg/kg/injection, schedule: Q01DX001 (ip), vehicle: saline with Tween-80): 100 % of control
